# Results from patent US10471111B2, “Lactobacillus and composition for preventing, improving, or treating degenerative brain diseases or cognitive function disorders” (University-Industry Cooperation Group of Kyung Hee …, priority 2015, dated 2019).
# Assays:
# Type in all cases: in vivo, ICR male mice
# [1] = test system: mice induced to have memory impairment by scopolamine; assay: Passive Avoidance test, memory impairment by scopolamine; conditions: scopolamine 1 mg/kg; lactic acid bacteria 1×10^9 CFU or donepezil 5 mg/kg daily for three days; measured up to 300 seconds
# Excerpt: In the Passive Avoidance test apparatus, which is divided into the first and second space, there is a guillotine-like door that connects the two spaces. By using lightings, the first space was kept bright while the second space was kept dark. On the floor of the second space that was kept dark was placed an electric grid that flowed 0.5 mA of electric shock for three seconds in the case of the animal moving to the dark space.
# (§1) The selected 13 types of lactic acid bacteria were each suspended in physiological saline at the concentration of 1×10^10 CFU/ ? , and then the suspension was administered to mice of the test animal (5-week-old ICR male mice from Raonbio), at the dosage of 0.1 ? (equivalent to 1×10^9 CFU of lactic acid bacteria) on a daily basis for three days. […]
# On the third day after administering the drug, an hour after administering lactic acid bacteria or positive control drug, 1 mg/kg (body weight) of scopolamine (cholinergic blocking drug inducing cognitive ability disorder or memory damage), dissolved in distilled water, was administered in the abdomen while the normal group was administered with physiological saline in the abdomen. […] With 10 seconds of observation, the guillotine-like door is opened, the time that the mice in each experimental group took to have all of their four feet inside the second space was measured up to 300 seconds, whose result is shown in Table 8. […]
# [2] = test system: mice induced to have memory impairment by scopolamine; assay: Y-maze test, memory impairment by scopolamine
# Experimental: Apparatus used in the Y-maze test consists of three arms with each being 42 cm in length, 3 cm in width and 12 cm in height. The three arms, made from black polyvinyl resin, were placed at an angle of 120 degrees.
# as §1
# An hour after the final administration of lactic acid bacteria or positive control drug, 1 mg/kg (body weight) of scopolamine (cholinergic blocking drug inducing cognitive ability disorder or memory impairment), dissolved in distilled water, was administered in the abdomen while the normal group was administered with physiological saline in the abdomen. half an hour after the administration of scopolamine, the mouse was carefully placed in one of the three arms, A, B, and C, in the Y-maze and allowed to freely move for eight minutes, and then the arm in which the mouse moved was recorded. In the experiment, the arm was recorded as a case in which the test animal moved only when the entire body including the tail was inside the arm, or when the mouse moved back in. […]
# [3] = test system: mice induced to have memory impairment by Proteus mirabilis K21; assay: Y-maze test, memory impairment by Proteus mirabilis K21; conditions: Proteus mirabilis K21 1×10^9 CFU for five days, then lactic acid bacteria 1×10^9 CFU or donepezil 5 mg/kg daily for five days
# Experimental: Proteus mirabilis K21 separated from the animal with damaged memory was administered to the mice to induce memory impairment (similar symptoms to […]), and Y-maze test was conducted to measure the improvement effect of lactic acid bacteria for cognitive ability.
# In more detail, Proteus mirabilis K21 was administered to a mouse (5-week-old ICR male mice from Raonbio) that was fed for a week in the animal laboratory at the dosage of 1×10^9 CFU on a daily basis for five days to induce memory impairment. In the meantime, the normal group was administered with physiological saline instead of Proteus mirabilis K21. […]
# An hour after the final administration of drug, the mouse was carefully placed in one of the three arms, A, B, and C, in the Y-maze and allowed to freely move for eight minutes, and then the arm in which the mouse moved was recorded. In the experiment, the arm was recorded as an arm in which the test animal moved only when the entire body including the tail was inside the arm, or when the mouse moved back in. […] The experimental result was calculated by the formula below (Sarter, M. et al., Psychopharmacology., 94, pp 491-495, 1998), as shown in Table 12 below. […]
structure (smiles),measurement,setting,value
COc1cc2c(cc1OC)C(=O)C(CC1CCN(Cc3ccccc3)CC1)C2 (stereo not shown) [donepezil],Latency time,[1],66.4 s
same,Alternation behavior,"[2]; Y-maze test, Table 11, scopolamine, red bean suspension or ferment 0.2 g per mouse, CJLJ103 2 × 10^8 CFU per mouse daily",63.2%
same,Alternation behavior,"[2]; scopolamine 1 mg/kg, lactic acid bacteria 1×10^9 CFU or donepezil 5 mg/kg daily for three days",65.8%
same,Alternation behavior,[3],58.6%
